# Columns and labels:
# HeLa cells = experiment: MTT assay, HeLa cells under hypoxic conditions (CoCl2); type: cell-based
# Description: Taking into consideration the good cytotoxicity of C-4,2 on cancer cells and its ability to stabilise GQ structures also in the cellular environment, we decided to further evaluate its antitumor potential by testing it under hypoxic conditions, when expression of high amounts of CA IX occurs. To this aim, HeLa cells were pre-treated for 60 h with a non-toxic concentration of cobalt(II) chloride hexahydrate (CoCl2, 50 μM, Figure S14, Supporting Information), which was employed as the chemical inducer of HIF-1α to establish hypoxia[70]^,[71]. After that, HeLa were exposed to increasing concentrations of C-4,2 or vehicle, for the following 12 h, still in the presence of CoCl2. […]
# For the MTT experiments in the presence of normal oxygen levels, HeLa cells were seeded in 96-well plates at a density of 15,000 cells per well (culture medium volume – 100 μL/well) and incubated at 37 °C, for 24 h. […] Finally, the optical density of the samples (at 570 nm) was measured on an ELx800 Absorbance Microplate Reader (BioTek Instruments, Inc., Winooski, VT, USA). The percentage (%) of cell survival for each condition was calculated by using the following equation: % cell survival=OD− OD0/ODCONTROL− OD0×100 where OD is the optical density of the sample, OD0 is the optical density of the background signal, and ODCONTROL is the optical density of the control sample (cells treated with vehicle, 0.5% DMSO). […]
# GQ structures = experiment: BG4 immunofluorescence of GQ foci, hypoxic HeLa cells; type: cell-based; settings: hypoxic HeLa cells (50 μM CoCl2 60 h), 1 µM C-4,2 for 12 h, vs DMSO-treated hypoxic cells
# Description: Finally, we investigated C-4,2 capability to impact the formation of GQ structures even in hypoxic HeLa cells.
# Figure 7. (A) Representative fields showing G4 foci formation detected by immunofluorescence in HeLa cells pre-treated with 50 μM cobalt (II) chloride hexahydrate for 60 h to induce hypoxia and then exposed to 1 µM C-4,2 or vehicle (0.1% DMSO) for the following 12 h, still in the presence of CoCl2. DMSO-treated normoxic HeLa cells are also shown. Scale bar: 10 µm. Upper panels: the merged channels of BG4-stained GQ structures (magenta) and Hoechst-counterstained nuclei (grey) are reported. Lower panels: enlargements from the pictures in the upper panels. (B) Quantification of the cellular BG4 foci in DMSO-treated normoxic HeLa cells, DMSO-treated hypoxic HeLa cells, and C-4,2-treated hypoxic HeLa cells. An average of 50 cells were screened for each condition. […] The statistical significance was calculated using a one-way ANOVA test on GraphPad Prism 8.0.2 (**: p < 0.01, ****: p < 0.0001).
# For the IF experiments in the presence of normal oxygen levels, HeLa cells were seeded on sterile coverslips, in a 24-well plate, at a density of 90,000 cells per well, and incubated overnight. […] From there, the cellular and nuclear foci were segmented, and their number or fluorescence intensity was quantified by using the Image Analysis package of ZEISS ZEN 3.1 software.
compound,measurement,setting,value
"COc1ccc2cc3[n+](cc2c1OCCCCn1cc(COc2ccc4ccc(=O)oc4c2)nn1)CCc1cc2c(cc1-3)OCO2 [Compound 37, 10-Methoxy-9–(4-(4-(((2-oxo-2H-chromen-7-yl)oxy)methyl)-1H-1,2,3-triazol-1-yl)butoxy)-5,6-dihydro-[1,3]dioxolo[4,5-g]isoquinolino[3,2-a]isoquinolin-7-ium hexafluorophosphate]",cytotoxicity compared with co-exposure to equimolar berberine and C,"HeLa cells; 12 h, hypoxia (CoCl2)",greater
same,IC50,"HeLa cells; Homo sapiens, 60 h pre-treatment with 50 μM CoCl2, then 12 h treatment, hypoxia",26.5 µM
same,number of detectable GQs (BG4 foci),GQ structures,remarkable increase

# From paper PMC11195807, “Development of a multi-targeted chemotherapeutic approach based on G-quadruplex stabilisation and carbonic anhydrase inhibition” (Journal of Enzyme Inhibition and Medicinal Chemistry, 2024)
